16 compounds from patent US20070185161A1, “Bicyclic substituted indole-derivative steroid hormone nuclear receptor modulators” (priority 2004, published 2007) can be followed below.

Usually Ki stands for a measure of affinity in units of concentration, obtained from inhibition or displacement.

Some results are limits rather than exact numbers.

The target of the test is T1, glucocorticoid receptor (A549 human lung epithelial cell extract) (Homo sapiens, UniProt P04150).
T1 construct: host or cells: A549 human lung epithelial cells
T1 sequence (P04150 1-777): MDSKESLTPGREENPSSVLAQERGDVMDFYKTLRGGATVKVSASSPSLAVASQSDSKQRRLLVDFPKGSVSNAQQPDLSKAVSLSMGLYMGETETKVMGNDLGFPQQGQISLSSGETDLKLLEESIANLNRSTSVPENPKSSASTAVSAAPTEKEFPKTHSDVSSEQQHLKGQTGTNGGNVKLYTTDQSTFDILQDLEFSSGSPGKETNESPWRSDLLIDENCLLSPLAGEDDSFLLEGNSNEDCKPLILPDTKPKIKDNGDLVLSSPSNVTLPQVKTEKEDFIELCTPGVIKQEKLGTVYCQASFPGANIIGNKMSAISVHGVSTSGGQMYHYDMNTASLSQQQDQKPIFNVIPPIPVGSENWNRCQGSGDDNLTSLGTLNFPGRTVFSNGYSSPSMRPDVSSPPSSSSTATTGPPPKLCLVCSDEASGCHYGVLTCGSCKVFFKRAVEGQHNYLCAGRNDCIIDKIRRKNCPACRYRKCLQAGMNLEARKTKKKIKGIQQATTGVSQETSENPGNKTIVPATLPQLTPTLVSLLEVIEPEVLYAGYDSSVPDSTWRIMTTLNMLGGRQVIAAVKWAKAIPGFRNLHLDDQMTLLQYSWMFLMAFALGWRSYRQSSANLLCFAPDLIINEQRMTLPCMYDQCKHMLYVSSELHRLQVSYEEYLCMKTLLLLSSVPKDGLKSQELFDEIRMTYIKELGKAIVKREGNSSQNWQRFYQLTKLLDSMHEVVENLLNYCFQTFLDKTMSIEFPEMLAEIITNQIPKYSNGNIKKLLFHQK
In words: Glucocorticoid Receptor Binding Assay (Method 1). The conditions noted are these: [3H]-dexamethasone, racemic mixture unless otherwise indicated, read-out: GR Ki (nM) Method 1. As to the method: A549 human lung epithelial cells (ATCC) are grown at a scale where gram quantity cell pellets are obtained. Harvested cell pellets are washed twice in cold phosphate buffered saline, centrifuged, and resuspended in cold assay binding buffer. The assay binding buffer consists of 10% glycerol, 50 mM Tris-HCl (pH7.2), 75 mM sodium chloride, 1.5 mM magnesium chloride, 1.5 mM EDTA, and 10 mM sodium molybdate. Cell suspensions were lysed via sonication, centrifuged, and the “extract” supernatant is snap frozen and stored at −80 C until needed.
GR binding assays are performed in a final volume of 140 ul containing 50-200 ug of A549 cell extract and 1.86 nM [^3H]-dexamethasone (Amersham) plus varying concentrations of test compound or vehicle. Briefly, assays are prepared at RT in 96-well Fisher 3356 plates, each well containing 100 ul of A549 cell extract, 20 ul of [^3H]-dexamethasone, and 20 ul of test compound/vehicle. Incubations are carried out at 4 degrees Celsius for 16 hours. After incubation, 70 ul of 3× dextran-coated charcoal solution is added to each reaction, mixed, and incubated for 8 minutes at RT. 3×-dextran-coated charcoal solution consists of 250 ml assay binding buffer, 3.75 g Norit A charcoal (Sigma), and 1.25 g dextran T-70 (Amersham). Charcoal/unbound radioligand complexes are removed by centrifugation of the plate and 140 ul of supernatant from each well is transferred to another 96 well Optiplate (Packard Instruments). 200 ul of Microscint-20 scinillant (Packard Instruments) is added to each well and amount of receptor bound radioligand is determined using Packard Instruments TopCount instrument.
IC50 values, defined as the concentration of test compound required to decrease [^3H]-dexamethasone binding by 50%, are then determined. Ki values for each respective test compound can then be calculated by application of the Cheng-Prusoff equation as described in Cheng et al., Relationship Between The Inhibition Constant (Ki) and The Concentration of Inhibitor Which Causes 50% Inhibition (IC50) of an Enzymatic Reaction, Biochem. Pharmacol., 22: 3099-31088; (1973).
As for `CC1(c2c[nH]c3c(NS(C)(=O)=O)cccc23)CCc2cc(F)ccc21` (single isomer, unassigned) [Example 21B, N-[3-(5-Fluoro-1-methyl-indan-1-yl)-1H-indol-7-yl]-methanesulfonamide], the inhibition constant (Ki) was at most 500 nM.

In the case of `CCC1(c2c[nH]c3c(NS(C)(=O)=O)cccc23)CCc2cc(F)cc(F)c21` (single isomer, unassigned) [Example 23A, N-[3-(1-Ethyl-5,7-difluoro-indan-1-yl)-1H-indol-7-yl]-methanesulfonamide], the inhibition constant (Ki) was at most 500 nM.

As for `CCC1(c2c[nH]c3c(NS(C)(=O)=O)cccc23)CCc2cc(F)cc(F)c21` (single isomer, unassigned) [Example 23B, N-[3-(1-Ethyl-5,7-difluoro-indan-1-yl)-1H-indol-7-yl]-methanesulfonamide], the inhibitory constant (Ki) was at most 10000 nM.

Consider `CC1(c2c[nH]c3c(NS(C)(=O)=O)cccc23)CCCc2cc(F)ccc21` (single isomer, unassigned) [Example 28A, N-[3-(6-Fluoro-1-methyl-1,2,3,4-tetrahydro-naphthalen-1-yl)-1H-indol-7-yl]-methanesulfonamide], for which the Ki was at most 500 nM.

Regarding `CC1(c2c[nH]c3c(NS(C)(=O)=O)cccc23)CCCc2cc(F)ccc21` (single isomer, unassigned) [Example 28B, N-[3-(6-Fluoro-1-methyl-1,2,3,4-tetrahydro-naphthalen-1-yl)-1H-indol-7-yl]-methanesulfonamide], the Ki was at most 500 nM.

As for `CCC1(c2c[nH]c3c(NS(C)(=O)=O)cccc23)CCCc2cc(F)ccc21` (single isomer, unassigned) [Example 29A, N-[3-(1-Ethyl-6-fluoro-1,2,3,4-tetrahydro-naphthalen-1-yl)-1H-indol-7-yl]-methanesulfonamide], the Ki is at most 500 nM.

For the compound `CCC1(c2c[nH]c3c(NS(C)(=O)=O)cccc23)CCCc2cc(F)ccc21` (single isomer, unassigned) [Example 29B, N-[3-(1-Ethyl-6-fluoro-1,2,3,4-tetrahydro-naphthalen-1-yl)-1H-indol-7-yl]-methanesulfonamide], the Ki was at most 500 nM.

In the case of `CC1(c2c[nH]c3c(NS(C)(=O)=O)cccc23)CCc2ccccc21` (stereo not shown) [Example 20, N-[3-(1-Methyl-indan-1-yl)-1H-indol-7-yl]-methanesulfonamide], the inhibition constant (Ki) is at most 500 nM.

Take `CC1(c2c[nH]c3c(NS(C)(=O)=O)cccc23)CCc2cc(-n3cccn3)ccc21` (stereo not shown) [Example 24, N-[3-(1-Methyl-5-pyrazol-1-yl-indan-1-yl)-1H-indol-7-yl]-methanesulfonamide]: the Ki is at most 500 nM.

As for `CS(=O)(=O)Nc1cccc2c(C3CCCc4ccccc43)c[nH]c12` (stereo not shown) [Example 25, N-[3-(1,2,3,4-Tetrahydro-naphthalen-1-yl)-1H-indol-7-yl]-methanesulfonamide], the inhibition constant (Ki) is at most 500 nM.

On to `CC1(c2c[nH]c3c(NS(C)(=O)=O)cccc23)CCCc2ccccc21` (stereo not shown) [Example 26, N-[3-(1-Methyl-1,2,3,4-tetrahydro-naphthalen-1-yl)-1H-indol-7-yl]-methanesulfonamide], for which the Ki is at most 500 nM.

With `CCC1(c2c[nH]c3c(NS(C)(=O)=O)cccc23)CCCc2ccccc21` (stereo not shown) [Example 27, N-[3-(1-Ethyl-1,2,3,4-tetrahydro-naphthalen-1-yl)-1H-indol-7-yl]-methanesulfonamide], the Ki was at most 500 nM.

In the case of `CC1(c2c[nH]c3c(NS(C)(=O)=O)cccc23)CCOc2ccccc21` (stereo not shown) [Example 32, N-[3-(4-Methyl-chroman-4-yl)-1H-indol-7-yl]-methanesulfonamide], the Ki is at most 500 nM.

With `CC1(c2c[nH]c3c(NS(C)(=O)=O)cccc23)CCOc2ccc(F)cc21` (stereo not shown) [Example 33, N-[3-(6-Fluoro-4-methyl-chroman-4-yl)-1H-indol-7-yl]-methanesulfonamide], the Ki was at most 500 nM.

As for `CC1(c2c[nH]c3c(NS(C)(=O)=O)cccc23)CCSc2ccccc21` (stereo not shown) [Example 37, N-[3-(4-Methyl-thiochroman-4-yl)-1-indol-7-yl]-methanesulfonamide], the Ki is at most 500 nM.

For `CC1(c2c[nH]c3c(NS(C)(=O)=O)cccc23)CCCCc2ccccc21` (stereo not shown) [Example 38, N-[3-(5-Methyl-6,7,8,9-tetrahydro-5H-benzocyclohepten-5-yl)-1H-indol-7-yl]-methanesulfonamide], the inhibition constant Ki was at most 500 nM.
